# Data reported in ChEMBL document CHEMBL3399917, “Design, synthesis and antiproliferative activity evaluation of m-(4-morpholinyl-1,3,5-triazin-2-yl)benzamides in vitro” (Bioorg Med Chem Lett, 2015).
# Activity calls are given as the source filed them. The calls are words filed in the database; no cut-off is given here.
# What was measured:
# [1] = Antiproliferative activity against human HCT116 cells assessed as inhibitory ratio at 10 uM after 72 hrs by MTT assay; assay type: functional; conditions: HCT-116, 72 h
# MCF7 [2] = assay: Antiproliferative activity against human MCF7 cells assessed as inhibitory ratio at 10 uM after 72 hrs by MTT assay; assay type: functional; conditions: MCF7, 72 h
# HeLa = assay: Antiproliferative activity against human HeLa cells after 72 hrs by MTT assay; assay type: functional, cell-based
# [3] = Antiproliferative activity against human HCT116 cells after 72 hrs by MTT assay; assay type: functional, cell-based; conditions: HCT-116, 72 h
# MCF7 [4] = assay: Antiproliferative activity against human MCF7 cells after 72 hrs by MTT assay; assay type: functional, cell-based; conditions: MCF7, 72 h
# [5] = Antiproliferative activity against human U87MG cells after 72 hrs by MTT assay; assay type: functional, cell-based, U-87MG ATCC; conditions: U-87 MG
# A549 = assay: Antiproliferative activity against human A549 cells after 72 hrs by MTT assay; assay type: functional, cell-based; conditions: A549, 72 h
# HCT-116 [6] = assay: Inhibition of PI3K/Akt in human HCT116 cells assessed as Akt phosphorylation at 10 uM after 1 hr by Western blotting analysis; assay type: cell-based
# HCT-116 [7] = assay: Induction of apoptosis in human HCT116 cells assessed as cell shrinking and vacuolization, chromatin condensation and nuclear fragmentation after 24 hrs by Hoechst staining based phase contrast microscopy; assay type: functional
Structure (SMILES),inhibition at 10 µM [1] [%],inhibition at 10 µM (MCF7 [2]) [%],IC50 (HeLa) [nM],IC50 [3] [nM],IC50 (MCF7 [4]) [nM],IC50 [5] [nM],IC50 (A549) [nM],inhibition (HCT-116 [6]),Activity (HCT-116 [7])
CS(=O)(=O)NC1CCN(c2nc(-c3cc(C(N)=O)cc(C(F)(F)F)c3)nc(N3CCOCC3)n2)CC1,19,49.3,,,,,,,
NC(=O)c1cc(-c2nc(N3CCOCC3)nc(N3CCOCC3)n2)ccc1O,31.7,32.7,,,,,,,
CS(=O)(=O)N1CCN(C(=O)CNc2nc(-c3cc(C(N)=O)cc(C(F)(F)F)c3)nc(N3CCOCC3)n2)CC1,29.8,19.3,,,,,,,
CN1CCN(c2nc(-c3cc(C(N)=O)cc(C(F)(F)F)c3)nc(N3CCOCC3)n2)CC1,36.2,40.2,,,,,,,
NC(=O)c1cc(-c2nc(N3CCOCC3)nc(N3CCOCC3)n2)ccc1Cl,35.6,34.4,,,,,,,
NC(=O)c1cc(-c2nc(N3CCOCC3)nc(N3CCOCC3)n2)ccc1OCc1ccccc1,29.9,31.2,,,,,,,
CS(=O)(=O)N1CCN(c2nc(-c3cc(C(N)=O)cc(C(F)(F)F)c3)nc(N3CCOCC3)n2)CC1,19.4,47.4,,,,,,,
CS(=O)(=O)N1CCC(Nc2nc(-c3cc(C(N)=O)cc(C(F)(F)F)c3)nc(N3CCOCC3)n2)CC1,42.9,30.9,,,,,,,
NC(=O)c1cc(-c2nc(N3CCOCC3)nc(N3CCOCC3)n2)cc(C(F)(F)F)c1,71.4,59.3,8070,2430,4970,11200,8230,,
NC(=O)c1cc(-c2nc(NCC(=O)N3CCOCC3)nc(N3CCOCC3)n2)cc(C(F)(F)F)c1,29.2,30.3,,,,,,,
CN(CCCC(=O)N1CCN(S(C)(=O)=O)CC1)c1nc(-c2cc(C(N)=O)cc(C(F)(F)F)c2)nc(N2CCOCC2)n1,40.8,37.7,,,,,,,
Nc1cc(C(F)(F)F)c(-c2cc(N3CCOCC3)nc(N3CCOCC3)n2)cn1 [BUPARLISIB],89.5,84,4340,480,1000,1640,2070,Active,
COc1ccc(-c2nc(N3CCOCC3)nc(N3CCOCC3)n2)cc1C(N)=O,40.4,36.2,,,,,,,
COc1cc(C(N)=O)cc(-c2nc(N3CCOCC3)nc(N3CCOCC3)n2)c1,41.2,42.2,,,,,,,
O=C(O)c1cc(-c2nc(N3CCOCC3)nc(N3CCOCC3)n2)cc(C(F)(F)F)c1,44.9,34.4,,,,,,,
NC(=O)c1cc(-c2nc(N3CCOCC3)nc(N3CCOCC3)n2)ccc1OCc1ccc(F)cc1,66.9,54.9,> 20000,2870,5230,3980,11300,,
COC(=O)c1cc(-c2nc(N3CCOCC3)nc(N3CCOCC3)n2)cc(C(F)(F)F)c1,40,37.2,,,,,,,
CN(c1nc(-c2cc(C(N)=O)cc(C(F)(F)F)c2)nc(N2CCOCC2)n1)C1CCN(S(C)(=O)=O)CC1,72,61.7,7120,1940,2130,4630,2360,,
NC(=O)c1cccc(-c2nc(N3CCOCC3)nc(N3CCOCC3)n2)c1,51.1,38,,,,,,,
CN(CCCC(=O)N1CCOCC1)c1nc(-c2cc(C(N)=O)cc(C(F)(F)F)c2)nc(N2CCOCC2)n1,44.8,38.5,,,,,,,
NC(=O)c1cc(OCc2ccccc2)cc(-c2nc(N3CCOCC3)nc(N3CCOCC3)n2)c1,31.6,32.5,,,,,,,
NC(=O)c1cc(-c2nc(N3CCOCC3)nc(N3CCOCC3)n2)ccc1OCc1cccc(F)c1,35.9,26.2,,,,,,,
NC(=O)c1cc(O)cc(-c2nc(N3CCOCC3)nc(N3CCOCC3)n2)c1,77.9,65.8,8170,1190,2170,3210,3720,,
NC(=O)c1cc(OC(F)(F)F)cc(-c2nc(N3CCOCC3)nc(N3CCOCC3)n2)c1,89.3,70.7,4830,900,1250,1530,2370,Active,Dose-dependent effect
